{"source": "paper PMC9699600", "about": "“Characterization of a Family of Scorpion Toxins Modulating Ca^2+-Activated Cl^− Current in Vascular Myocytes” (Toxins, 2022)", "key": {"[1]": {"tested_on": "Ca2+-activated and voltage-activated K+ currents", "test": "Ca2+-activated and voltage-activated K+ currents, patch clamp", "assay_type": "cell-based, rat", "conditions": "100 nM, sequential application", "experimental": "For K^+ current recording, the patch-clamp pipette contained 130 mM KCl and the external solution contained 5.6 mM KCl. Ca^2+-activated and voltage-activated K^+ currents were elicited by depolarizing pulses from −80 to 0 mV and Ca^2+-activated K^+ currents were activated by the opening of Ca^2+ channel during the depolarization step.\nVoltage-clamp and membrane current recordings were made with a standard patch-clamp technique using a List EPC-7 patch-clamp amplifier (Darmstadt-Eberstadt, Germany). Patch pipettes had resistances of 3–4 MΩ. […] Patch-clamp experiments were carried out at 30 ± 1 °C.\nThe normal physiological solution contained (in mM): NaCl 130, KCl 5.6, MgCl2 1, CaCl2 2, glucose 11 and HEPES 10, pH 7.4 with NaOH. The basic pipette solution contained (in mM) CsCl 130, HEPES 10 and pH 7.3 with NaOH (CsCl was replaced by KCl for potassium current measurements). […] Lqh peptides, chlorotoxin and other toxins were added in a bath solution."}, "[2]": {"target": "T1, Ca2+-activated Cl− current (TMEM16A/Ano1) in rat portal vein myocytes (Rattus norvegicus, UniProt A0A8I6GL36)", "T1 construct": "Isolated myocytes from rat portal veins were obtained by enzymatic dispersion; endogenous in cells; host or cells: freshly dissociated rat portal vein smooth muscle cells (short-term primary culture, used within 24 h)", "T1 sequence (A0A8I6GL36 1-990)": "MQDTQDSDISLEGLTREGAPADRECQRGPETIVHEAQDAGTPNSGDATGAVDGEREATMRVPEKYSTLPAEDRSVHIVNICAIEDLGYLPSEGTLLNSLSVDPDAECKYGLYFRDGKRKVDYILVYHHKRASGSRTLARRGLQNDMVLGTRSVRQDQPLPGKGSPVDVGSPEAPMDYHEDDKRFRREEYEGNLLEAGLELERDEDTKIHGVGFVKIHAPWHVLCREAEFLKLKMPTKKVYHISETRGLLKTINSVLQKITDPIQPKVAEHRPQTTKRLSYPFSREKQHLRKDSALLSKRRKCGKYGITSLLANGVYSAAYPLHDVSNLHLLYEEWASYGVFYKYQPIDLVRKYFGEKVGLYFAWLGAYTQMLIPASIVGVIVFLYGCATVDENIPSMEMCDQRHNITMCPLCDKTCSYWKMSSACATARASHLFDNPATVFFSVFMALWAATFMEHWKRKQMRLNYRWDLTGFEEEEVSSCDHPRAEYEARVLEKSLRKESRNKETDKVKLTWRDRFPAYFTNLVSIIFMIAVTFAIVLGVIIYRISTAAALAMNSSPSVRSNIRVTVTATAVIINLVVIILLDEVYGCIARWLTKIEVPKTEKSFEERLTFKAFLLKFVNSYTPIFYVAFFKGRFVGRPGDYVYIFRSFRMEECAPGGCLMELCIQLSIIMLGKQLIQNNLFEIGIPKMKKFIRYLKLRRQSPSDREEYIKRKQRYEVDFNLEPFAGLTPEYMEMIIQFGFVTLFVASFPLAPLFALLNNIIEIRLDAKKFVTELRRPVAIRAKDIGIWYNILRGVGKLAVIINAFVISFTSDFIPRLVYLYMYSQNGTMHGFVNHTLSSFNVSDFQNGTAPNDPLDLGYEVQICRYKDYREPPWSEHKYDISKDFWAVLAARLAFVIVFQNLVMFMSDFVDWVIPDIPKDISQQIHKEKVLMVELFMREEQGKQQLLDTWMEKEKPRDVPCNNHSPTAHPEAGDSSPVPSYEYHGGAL", "test": "Ca2+-activated Cl− current evoked by caffeine, whole-cell patch clamp", "assay_type": "cell-based", "conditions": "1 µM external application, 10 mM caffeine, holding potential −50 mV", "experimental": "In rat portal vein myocytes, at a holding potential of −50 mV, the external application of 10 mM caffeine induces a transient current depending on an increase in cytoplasmic Ca^2+ concentration, this current was characterized as Cl^− current [9] in the used experimental conditions. The amplitude of the Ca^2+-activated Cl^− current in our setup was 190 ± 20 pA (n = 101).\nIsolated myocytes from rat portal veins were obtained by enzymatic dispersion, as described previously (Morel et al. 1996).\nVoltage-clamp and membrane current recordings were made with a standard patch-clamp technique using a List EPC-7 patch-clamp amplifier (Darmstadt-Eberstadt, Germany). Patch pipettes had resistances of 3–4 MΩ. When [Ca^2+]i measurements were carried out simultaneously, Indo-1 (50 µM) was added to the pipette solution in the whole-cell recording mode and [Ca^2+]i was estimated from the 405/480 nm fluorescence ratio, using a calibration determined within cells, as previously described [36]. Patch-clamp experiments were carried out at 30 ± 1 °C. […]\nThe pooled data of n experiments are given as mean ± standard error. […] Inhibition-response curves were analyzed by a nonlinear least-squares fitting program according to models involving one or two binding sites (Graphpad-Prism software)."}}}
{"substance": "charybdotoxin", "values": [{"measurement": "effect on K+ currents (confirmation of both types of K+ currents)", "setting": "[1]", "result": "inhibition"}]}
{"substance": "chlorotoxin", "values": [{"measurement": "inhibition of the Ca2+-activated Cl− current at 1 µM", "setting": "[2]", "result": "36 ± 9", "unit": "%"}]}
{"substance": "scyllatoxin (AFCNLRMCQLSCRSLGLLGKCIGDKCECVKH; UniProt P16341 1-31, looked up) [K+ channel toxin from Latoxan]", "values": [{"measurement": "effect on K+ currents (confirmation of both types of K+ currents)", "setting": "[1]", "result": "inhibition"}]}
